Test results published in PubChem BioAssay (NCI).
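In this assay, cells in 96-well plates receive the compound at five concentrations for 48 hours. Endpoints are linearly interpolated between the surrounding concentrations. At the TGI there is no net growth.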

Legend:
Test in all cases: NCI anticancer screen, dose series, 48 h
A549 NSCLC = tested on: A549 NSCLC
KM12 colon = tested on: KM12 colon
LOX IMVI melanoma = tested on: LOX IMVI melanoma
M14 melanoma = tested on: M14 melanoma
MDA-MB-435 = tested on: MDA-MB-435
NCI-H460 lung = tested on: NCI-H460 lung
PC-3 prostate = tested on: PC-3 prostate
RPMI-8226 leukemia = tested on: RPMI-8226 leukemia
U251 CNS = tested on: U251 CNS
UACC-257 melanoma = tested on: UACC-257 melanoma

SMILES	TGI (A549 NSCLC)	TGI (KM12 colon)	TGI (LOX IMVI melanoma)	TGI (M14 melanoma)	TGI (MDA-MB-435)	TGI (NCI-H460 lung)	TGI (PC-3 prostate)	TGI (RPMI-8226 leukemia)	TGI (U251 CNS)	TGI (UACC-257 melanoma)
O=c1[nH]nc(Cc2ccc(Cl)cc2)n1/N=C/c1c[nH]c2ccccc12	> 100 µM	> 100 µM	> 100 µM	> 100 µM	> 100 µM	> 100 µM	> 100 µM	> 100 µM	> 100 µM	> 100 µM
NCCS(=O)(=O)O	> 100 µM	> 100 µM	> 100 µM	> 100 µM	> 100 µM	> 100 µM	> 100 µM	> 100 µM	> 100 µM	> 100 µM
COc1cc2[nH]c(=O)c3cc(C)cc4c(Cl)nc(c1OC)c2c43	> 100 µM	> 100 µM	> 100 µM	> 100 µM	> 100 µM	> 100 µM	> 100 µM	> 100 µM	> 100 µM	> 100 µM
CCOC(=O)C(NC(=O)CC)(Nc1ccc(S(=O)(=O)Nc2ccc(OC)nn2)cc1)C(F)(F)F (centres undefined)	> 100 µM	> 100 µM	> 100 µM	> 100 µM	> 100 µM	> 100 µM	> 100 µM	> 100 µM	> 100 µM	> 100 µM
Nc1ccccc1OCCCOc1ccccc1N	> 100 µM	> 100 µM	> 100 µM	> 100 µM	> 100 µM	> 100 µM	> 100 µM	> 100 µM	> 100 µM	> 100 µM
COC12C=CC(CC1)C(C)(C)C2OS(C)(=O)=O (centres undefined)	> 100 µM	> 100 µM		> 100 µM	> 100 µM	> 100 µM	> 100 µM	> 100 µM	> 100 µM	> 100 µM
O=S(c1ccc(Cl)cc1)c1ccccc1C1=NCCN1 (centres undefined)	> 100 µM	> 100 µM		> 100 µM	> 100 µM	> 100 µM	> 100 µM	> 100 µM	> 100 µM	> 100 µM
CC(=O)O[C@H]1C[C@](C)(O)[C@@]23CC([C@@H](OC(=O)C(C)(C)O)[C@@H](OC(C)=O)C2(COC(=O)c2ccccc2)[C@H]1OC(C)=O)C(C)(C)O3 (some centres undefined)	> 100 µM	> 100 µM	> 100 µM	> 100 µM	> 100 µM	> 100 µM	> 100 µM	> 100 µM	> 100 µM	> 100 µM
CN(C)C=NCC(O)c1ccccc1 (centres undefined)	> 100 µM	> 100 µM	> 100 µM	> 100 µM	> 100 µM	> 100 µM	> 100 µM	> 100 µM		
CC(=O)N1C(Nc2cccc3nc(C)ccc23)CCN1c1ccccc1 (centres undefined)	> 10 µM		> 10 µM	> 10 µM	> 10 µM	> 10 µM	> 10 µM	> 10 µM		> 10 µM
O=C1C=C(O)c2c(O)ccc(O)c2C1=O	> 100 µM	> 100 µM	> 100 µM	> 100 µM	> 100 µM	> 100 µM	> 100 µM	> 100 µM	> 100 µM	> 100 µM
CC(=O)OCC1OC(SC2=NC(=O)/C(=C/c3ccccc3)S2)C(OC(C)=O)C(OC(C)=O)C1OC(C)=O (centres undefined)	> 100 µM	> 100 µM	42.9 µM	> 100 µM	38.8 µM	> 100 µM	> 100 µM	66.3 µM	91 µM	> 100 µM
COc1ccc(-c2nc(-c3cnccn3)n(Cc3ccccc3)n2)cc1	> 100 µM	> 100 µM	> 100 µM	> 100 µM	> 100 µM	> 100 µM	> 100 µM	> 100 µM	> 100 µM	> 100 µM
C[C@@]12C[C@@H](c3ccccc3O1)N1Cc3ccccc3CSC1=N2		> 100 µM	> 100 µM	> 100 µM	> 100 µM	> 100 µM	> 100 µM	> 100 µM	> 100 µM	> 100 µM
COc1ccc(Cn2c3ccc([N+](=O)[O-])cc3c(=O)n2Cc2ccccn2)cc1	> 100 µM	> 100 µM	> 100 µM	> 100 µM	> 100 µM	> 100 µM	> 100 µM	> 100 µM	> 100 µM	> 100 µM
S=C(N/N=C(\C(=N/NC(=S)N1CCCCC1)c1ccccn1)c1ccccn1)N1CCCCC1	> 100 µM	> 100 µM	> 100 µM	50.3 µM	> 100 µM	> 100 µM	> 100 µM	> 100 µM	> 100 µM	> 100 µM

SMILES	TGI (A549 NSCLC)	TGI (KM12 colon)	TGI (LOX IMVI melanoma)	TGI (M14 melanoma)	TGI (MDA-MB-435)	TGI (NCI-H460 lung)	TGI (PC-3 prostate)	TGI (RPMI-8226 leukemia)	TGI (U251 CNS)	TGI (UACC-257 melanoma)
CC1(C)CN=CC(C)(OCc2ccccc2)C(=O)NC(C)(C)CN=CC(C)(OCc2ccccc2)C(=O)N1 (centres undefined)	> 10 µM	> 10 µM	> 10 µM	> 10 µM	> 10 µM	> 10 µM	> 10 µM	> 10 µM	> 10 µM	> 10 µM
CC(=O)c1ccc2c3c1O[C@H]1c4[nH]c5ccccc5c4C[C@@]4(O)[C@@H](C2)N(CC2CC2)CC[C@]314	21.3 µM	37.6 µM	33 µM	31.3 µM	32.5 µM	17.7 µM	21.7 µM	45.1 µM	26.1 µM	30.7 µM
CCN(CC)C1Oc2cc3c(cc2C(c2cccc(OC)c2O)C1C)OCO3 (centres undefined)	24.6 µM	16.6 µM	22.2 µM	12.6 µM	4.96 µM	21.9 µM	> 35.8 µM	13.6 µM	17.9 µM	> 50.4 µM
N#Cc1c(N2CCCC2)nsc1Nc1ccc(F)cc1	> 100 µM	> 100 µM	> 100 µM	> 100 µM	> 100 µM	> 100 µM	> 100 µM	> 100 µM	> 100 µM	> 100 µM
CC(=O)OCC1OC(n2c(N)c(C#N)c(-c3cccc(Cl)c3)c(C#N)c2=S)C(OC(C)=O)C(OC(C)=O)C1OC(C)=O (centres undefined)	> 100 µM	38.9 µM	30.1 µM	57.1 µM	50 µM	> 100 µM	> 100 µM	39.7 µM	78.9 µM	65 µM
CC1CCOc2ccc(cc2)C=Nc2ccc(cc2)-c2ccc(cc2)N=Cc2ccc(cc2)OCC1 (centres undefined)	> 100 µM	> 100 µM	> 100 µM	> 100 µM	> 100 µM	> 100 µM	> 100 µM	> 100 µM	> 100 µM	> 100 µM
N#Cc1ccc2[nH]c3c(c2c1)CC(=O)Nc1ccccc1-3	> 100 µM		> 100 µM	> 100 µM	> 100 µM	> 100 µM	> 100 µM	> 100 µM	> 100 µM	> 100 µM
CN(C)CC1CCCc2ccccc2C1=O (centres undefined)	39.5 µM	4.69 µM	4.49 µM	3.42 µM	2.62 µM	39.9 µM	3 µM	0.21 µM	3.12 µM	18.9 µM
CN1C=COC1N=C1CCCCC1 (centres undefined)	> 100 µM	> 100 µM	> 100 µM	> 100 µM	> 100 µM	> 100 µM	> 100 µM	> 100 µM	> 100 µM	
COc1ccc(C2C(C#N)=C(S)N(C3OC(CO)C(O)C(O)C3O)C(C)=C2C(C)=O)cc1 (centres undefined)	> 100 µM	> 100 µM	> 100 µM	> 100 µM	> 100 µM	> 100 µM	> 100 µM	> 100 µM	> 100 µM	> 100 µM
O=C(CC(c1ccccc1)C(C(=O)c1ccncc1)C(CC(=O)c1ccncc1)c1ccccc1)c1ccncc1 (centres undefined)	> 100 µM	> 100 µM	> 100 µM	> 100 µM	> 100 µM	> 100 µM	> 100 µM	> 100 µM	> 100 µM	> 100 µM
O=c1c2cc(I)ccc2nc(SCc2nnco2)n1Cc1ccccc1	> 100 µM	> 100 µM	> 100 µM	> 100 µM	> 100 µM	> 100 µM	> 100 µM	> 100 µM	> 100 µM	> 100 µM
COc1cc(O)cc(O)c1C(=O)CC(Cl)(Cl)Cl	> 100 µM	> 100 µM	> 100 µM	> 100 µM	> 100 µM	> 100 µM	> 100 µM	> 100 µM	> 100 µM	> 100 µM
OC1(c2ccc(Cl)cc2)c2c(c3ccccc3c3ccccc23)C2=NCCN21 (centres undefined)	59 µM	47.8 µM	73.8 µM	27 µM	> 100 µM	41.4 µM	49.6 µM	> 100 µM	30.8 µM	49.7 µM
Cc1c2cccc-2c(OCCOC(=O)n2ccnc2)cc2c1[nH]c1ccccc12	11 µM	4.65 µM	3.86 µM	10.5 µM	9.69 µM	18.1 µM	3.48 µM	9.9 µM		6.24 µM
C[C@]12CC[C@H](O)CC1=CC[C@@H]1[C@@H]2CC[C@]2(C)C(=O)/C(=C/c3ccc([N+](=O)[O-])cc3)C[C@@H]12	29.8 µM	> 100 µM	22.5 µM	> 100 µM	> 100 µM	> 100 µM	31 µM	> 100 µM		56 µM
